{"source": "patent US4620014A", "about": "“2-furylbutyrolactones and methods for using same” (priority 1983, dated 1986)", "key": {"[1]": {"test_system": "spleen lymphocytes from C57BL/6 mice", "experiment": "In vitro lymphocyte stimulation assay, C57BL/6 spleen lymphocytes", "assay_type": "cell-based, mouse", "procedure": "The purpose of this assay is to challenge lymphocytes in microcultures with one or more polyclonal mitogens at concentrations that will induce mitogenesis within 72 hours of stimulation.\nIn the mouse model, spleens are removed from different strains of mice and the spleen cells are teased free and suspended in RPMI-1640 tissue culture medium at a concentration of usually 1×10^7 ml. These cells are dispensed at a concentration of 5.0×10^5 cells per microculture well in a 96 well flat bottom 96 well tissue culture plate. All testing of the compounds of this invention or mitogens are done in replicates of 10. The cells are then treated with PHA, Con-A, specific antigens, or buffer only. If in vitro testing is done, varying concentrations of the compounds of this invention or buffer only are added to the cells as well. After treatment with the mitogens and/or compounds of this invention, the cells are incubated for 72 hours. The response of these cells to mitogens and/or the compounds of this invention is assessed using ^14 C-thymidine labeling on the fourth day at a concentration of 0.01 μCi/well. The labeled cells are harvested using a lymphocyte harvestor and placed onto fibrous paper discs. A scintillation cocktail is added to vials contaning the discs and the results are obtained using a LKB-liquid scintillation counter (Model 1216/Rackbeta II). The data is expressed as a ratio of the cpm of the mitogen stimulated group to the control (non-mitogen) treated group=lymphocyte stimulation index (LSI).\nThe lymphocyte stimulation assay may be performed directly on spleen cells obtained from various strains of mice not treated with the compounds of this invention or on lymphocytes obtained from […]. […] Alternatively, the mice may be treated in vivo with the compounds of this invention by intraperitoneal multi-dose schedules, followed by sacrifice and harvesting spleen lymphocytes. These cells are then tested for their response to polyclonal mitogens or specific antigens used to immunize the mice. In this sytem however, no additional compound is added to the in vitro lymphocyte stimulation assay system.\nAn in vitro lymphocyte stimulation assay is performed directly on normal spleen lymphocytes removed from five normal C57BL/6 mice, using concentrations of Cpd. […] Following three days of incubation the assay is completed.\nAn in vitro lymphocyte stimulation assay was performed using spleen lymphocytes from normal C57BL/6 mice. The lymphocytes were treated with either 1, 5, 10, 50, or 100 μg/well of Cpd. 1 or buffer.\nCpd. 2 was tested using normal spleen lymphocytes from C57BL/6 mice. A lymphocyte stimulation assay was conducted using either 1, 5, 10, 50, or 100 μg/well […] or just buffer.\nSpleen cells from C57BL/6 mice were treated, in vitro, with the crystallizing reagents, succinic acid and succinimide. Since these compounds are spontaneously released from the molecular complex in solution at a molar ratio of 2 moles of Cpds. 1, 2, or 3 per mole of the crystalline reagent, these reagents were treated in the lymphocyte stimulation assay at proper molar concentrations.\nThe compound of example 3, Cpd. 3, was used to treat C57BL/6 spleen lymphocytes in vitro. The lymphocytes were treated with either 1, 5, 10, 50, or 100 μg/well of Cpd. 3 or just buffer and then a lymphocyte stimulation assay was performed."}, "[2]": {"test_system": "FLC-745 cells", "experiment": "MLTC assay of CTL activity, FLC-745 target cells", "assay_type": "cell-based", "from_the_text": "A mixed lymphocyte tumor culture (MLTC) immunoassay, used to determine the cytotoxic lymphocyte (CTL) activity employs lymphocytes from either immunized (sensitized) mice or DBA/2 tumor dormant state animals in various stages of the tumor dormant state (TDS). The assay employs L5178Y target cells labeled with ^51 Chromium and effector cells (sensitized lymphocytes) from the above-mentioned sources. Effector-target cell ratios will vary with different experimental conditions and may or may not include irradiated stimulator L5178Y cells. Results are expressed as % lysis of target cells based on ratio of cpm of test group over cpm of total release (maximum) both of which are corrected for spontaneous release of ^51 Cr. The assay can be performed as an 8 or 18 hour release assay.\nAn MLTC assay is performed to assess the CTL activity and tumor target cell specificity of Cpd. 1. Tumor dormant spleen cells and normal spleen cells of DBA/2 mice are used as effector cells. Irradiated L5178Y cells are used as stimulator cells. ^51 Cr-labeled L5178Y cells and FLC-745 cells are used as target cells. The effector/target ratios studied are 100:1, 30:1 and 10:1."}}, "note": "Where “and” joins values, the source holds several entries; their conditions need not be identical. Equal entries are not always repeated.", "data": [{"molecule": "Cc1ccc(C2(O)C(=O)OC3C(O)COC32O)o1.Cc1ccc(C2(O)C(=O)OC3C(O)COC32O)o1.O=C1CCC(=O)O1", "note": "(stereo not shown) [Cpd. 1]", "values": [{"measurement": "Lymphocyte Stimulation Index, Con-A", "setting": "[1]; 1 μg/well in vitro", "result": "178 and 123"}, {"measurement": "Lymphocyte Stimulation Index, PHA", "setting": "[1]; 1 μg/well in vitro", "result": "53.8 and 80.4"}, {"measurement": "Lymphocyte Stimulation Index, Con-A", "setting": "[1]; 5 μg/well in vitro", "result": 162}, {"measurement": "Lymphocyte Stimulation Index, Control (no mitogen)", "setting": "[1]; 5 μg/well in vitro", "result": 1.8}, {"measurement": "Lymphocyte Stimulation Index, PHA", "setting": "[1]; 5 μg/well in vitro", "result": 157}, {"measurement": "mitogenesis, PHA and Con-A", "setting": "[1]; 10 μg/well (Example 12)", "result": "significant suppression"}, {"measurement": "Lymphocyte Stimulation Index, Con-A", "setting": "[1]; 50 μg/well in vitro", "result": 3.78}, {"measurement": "Lymphocyte Stimulation Index, Control (no mitogen)", "setting": "[1]; 50 μg/well in vitro", "result": ".20"}, {"measurement": "Lymphocyte Stimulation Index, PHA", "setting": "[1]; 50 μg/well in vitro", "result": ".261"}, {"measurement": "Lymphocyte Stimulation Index, Con-A", "setting": "[1]; 100 μg/well in vitro", "result": ".308"}, {"measurement": "Lymphocyte Stimulation Index, Control (no mitogen)", "setting": "[1]; 100 μg/well in vitro", "result": ".20"}, {"measurement": "Lymphocyte Stimulation Index, PHA", "setting": "[1]; 100 μg/well in vitro", "result": ".292"}, {"measurement": "mitogenesis, PHA and Con-A", "setting": "[1]; 0.001-1.0 μg/well", "result": "significant stimulation of mitogenesis"}, {"measurement": "response to PHA and Con-A", "setting": "[1]; 5 and 10 μg/well", "result": "significant increases"}, {"measurement": "lymphocyte response to the mitogens", "setting": "[1]; 50 and 100 μg/well", "result": "significant decreases"}, {"measurement": "Lymphocyte Stimulation Index, Con-A", "setting": "[1]; .001 μg/well in vitro", "result": 198}, {"measurement": "Lymphocyte Stimulation Index, Control (no mitogen)", "setting": "[1]; .001 μg/well in vitro", "result": 3.8}, {"measurement": "Lymphocyte Stimulation Index, PHA", "setting": "[1]; .001 μg/well in vitro", "result": 80.4}, {"measurement": "Lymphocyte Stimulation Index, Con-A", "setting": "[1]; .01 μg/well in vitro", "result": 198}, {"measurement": "Lymphocyte Stimulation Index, Control (no mitogen)", "setting": "[1]; .01 μg/well in vitro", "result": 3.2}, {"measurement": "Lymphocyte Stimulation Index, PHA", "setting": "[1]; .01 μg/well in vitro", "result": 87.5}, {"measurement": "Lymphocyte Stimulation Index, Con-A", "setting": "[1]; .1 μg/well in vitro", "result": 198}, {"measurement": "Lymphocyte Stimulation Index, Control (no mitogen)", "setting": "[1]; .1 μg/well in vitro", "result": 3.2}, {"measurement": "Lymphocyte Stimulation Index, PHA", "setting": "[1]; .1 μg/well in vitro", "result": 83.1}, {"measurement": "% Lysis", "setting": "[2]; E + D (TDS effector, no stimulator), E/T 10:1", "result": 0.7, "unit": "%"}, {"measurement": "% Lysis", "setting": "[2]; E + D (TDS effector, no stimulator), E/T 30:1", "result": 4.6, "unit": "%"}, {"measurement": "% Lysis", "setting": "[2]; E + D (TDS effector, no stimulator), E/T 100:1", "result": 6.6, "unit": "%"}, {"measurement": "% Lysis", "setting": "[2]; E + S + D (TDS effector, stimulator), E/T 10:1", "result": 0.5, "unit": "%"}, {"measurement": "% Lysis", "setting": "[2]; E + S + D (TDS effector, stimulator), E/T 30:1", "result": 3.6, "unit": "%"}, {"measurement": "% Lysis", "setting": "[2]; E + S + D (TDS effector, stimulator), E/T 100:1", "result": 13.4, "unit": "%"}, {"measurement": "enhancement of CTL activity", "setting": "[2]; FLC-745 target system (Example 28)", "result": "not observed"}, {"measurement": "% Lysis", "setting": "[2]; N + D (normal effector, no stimulator), E/T 10:1", "result": -3.5, "unit": "%"}, {"measurement": "% Lysis", "setting": "[2]; N + D (normal effector, no stimulator), E/T 30:1", "result": 0.9, "unit": "%"}, {"measurement": "% Lysis", "setting": "[2]; N + D (normal effector, no stimulator), E/T 100:1", "result": 13.9, "unit": "%"}, {"measurement": "% Lysis", "setting": "[2]; N + S + D (normal effector, stimulator), E/T 10:1", "result": -1.1, "unit": "%"}, {"measurement": "% Lysis", "setting": "[2]; N + S + D (normal effector, stimulator), E/T 30:1", "result": -0.8, "unit": "%"}, {"measurement": "% Lysis", "setting": "[2]; N + S + D (normal effector, stimulator), E/T 100:1", "result": 5.8, "unit": "%"}]}]}
